Test results reported in US10683278B2 (JINAN UNIVERSITY, priority 2015, dated 2020).

Columns and labels:
[1] = tested on: MV4-11 cells; assay: Inhibition of proliferation of MV4-11 cells (CCK-8); format: cell-based; conditions: Homo sapiens, 72 h, mean±standard deviation of two independent tests
Protocol: (§1) 12000 g of compounds were centrifuged for 5 min, DMSO was added to make a 10^−2M stock solution, vortexed uniformly and sonicated for 10 min for standby application, and stored at −40° C. The compounds were diluted from the stock solution with saline to 10 times the concentration to be tested (concentration of DMSO in the system being no more than 0.5%) during the test.
(§2) The inhibitory effect of the compounds on the proliferation of MV4-11 cells was detected using a CCK-8 cell counting kit (Dojindo). The specific steps are as follows: the MV4-11 cells in logarithmic growth phase were seeded into a 96-well culture plate at a suitable density in 90 μL/well, cultured overnight, compounds at different concentrations were then added and acted on cells for 72 hr, and the solvent control group (negative control) was set up. The effect of the compounds on cell proliferation was detected using a CCK-8 cell counting kit (Dojindo) after the compounds had acted on the cells for 72 h. 10 μL of CCK-8 reagent was added to each well, same was placed in an incubator at 37° C. for 2-4 hours, and the reading from the full-wavelength microwell plate ELIASA SpectraMax 190 was performed with a wavelength of 450 nm.
(§3) IC50 value was calculated using a software included with ELIASA by the four-parameter regression.
(§4) IC50 for the inhibition of the compounds on each stain of cells was derived from two independent repeated tests, and the results are shown as the mean±standard deviation.

[2] = tested on: Molm-13 cells; assay: Inhibition of proliferation of Molm-13 cells (CCK-8); format: cell-based; conditions: Homo sapiens, 72 h, mean±standard deviation of two independent tests
Protocol: [Worded in the source for another cell line; this cell line is reported under the same test.] as §1, §2, §3, §4

[3] = biological target: T1, AXL kinase (Homo sapiens, UniProt P30530); assay: IC50 test on AXL kinase (Z′-LYTE FRET kinase activity detection); format: biochemical; conditions: for IC50: Z′-LYTE FRET peptide assay, 1 h reaction; for inhibitory activity on AXL kinase: competitive experiment with ATP, in words
T1 construct: purchased Invitrogen PV4803
T1 sequence (P30530 26-894): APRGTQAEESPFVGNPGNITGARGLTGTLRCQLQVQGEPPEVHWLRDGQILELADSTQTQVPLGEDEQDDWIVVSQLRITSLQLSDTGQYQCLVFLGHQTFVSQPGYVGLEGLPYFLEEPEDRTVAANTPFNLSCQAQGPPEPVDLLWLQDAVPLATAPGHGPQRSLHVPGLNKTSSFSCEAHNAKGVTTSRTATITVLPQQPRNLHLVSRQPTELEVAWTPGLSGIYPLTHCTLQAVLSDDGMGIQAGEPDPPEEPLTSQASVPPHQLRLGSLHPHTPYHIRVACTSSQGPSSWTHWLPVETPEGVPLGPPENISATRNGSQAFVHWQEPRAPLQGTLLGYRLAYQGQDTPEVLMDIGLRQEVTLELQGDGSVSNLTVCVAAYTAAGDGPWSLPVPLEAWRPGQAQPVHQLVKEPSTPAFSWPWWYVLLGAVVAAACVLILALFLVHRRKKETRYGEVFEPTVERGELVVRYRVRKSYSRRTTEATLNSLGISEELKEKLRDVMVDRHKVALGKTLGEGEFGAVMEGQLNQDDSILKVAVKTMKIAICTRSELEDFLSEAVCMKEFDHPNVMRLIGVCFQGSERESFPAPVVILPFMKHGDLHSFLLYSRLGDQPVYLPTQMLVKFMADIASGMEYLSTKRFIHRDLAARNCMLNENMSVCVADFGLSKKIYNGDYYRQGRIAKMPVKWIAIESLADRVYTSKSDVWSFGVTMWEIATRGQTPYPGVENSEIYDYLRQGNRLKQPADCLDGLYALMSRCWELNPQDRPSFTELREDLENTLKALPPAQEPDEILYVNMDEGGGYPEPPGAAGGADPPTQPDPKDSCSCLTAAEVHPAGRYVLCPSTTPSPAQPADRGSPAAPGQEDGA
Procedure, shortened: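 Z′-LYTE FRET readout: after 1 h kinase reaction (AXL, Tyr 2 peptide, ATP, compound dilutions), a 1 h protease step cuts unphosphorylated substrate. Excitation at 400 nm, signals at 445 nm and 520 nm used to derive IC50.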

[4] = tested on: MDA-MB-231 cells; assay: Immunofluorescence, EMT marker proteins in TGF-β1-induced MDA-MB-231 cells; format: cell-based; conditions: TGF-β1 (10 ng/ml); for expression of E-cadherin / expression of N-cadherin: 96 hours; for phosphorylation level of AXL: FIGS. 3 and 4
Protocol: Immunofluorescence experiments were used to determine the effect of the compounds on EMT marker proteins.
MDA-MB-231 cells were seeded onto a glass slide pre-placed in a 6-well plate, and then treated with compounds to be tested at different concentrations (0.04, 0.2, 1.5 μM) with or without TGF-β1 (10 ng/ml) for 96 hours. At room temperature, the cells were fixed with a 4% formaldehyde solution for 15 minutes, treated with 0.5% Triton X-100 for 10 minutes, and blocked with PBS solution containing 3% goat serum albumin for one hour, and then incubated with antibodies against E-cadherin and N-cadherin (1:1000; Abeam, ab10983) for 1.5 hours at room temperature. The cells were then washed with PBST and co-incubated with Alexa Fluor 555 labeled rabbit secondary antibody (4413; CST, USA) or Alexa Fluor 488 labeled murine secondary antibody (4408; CST, USA) for one hour at room temperature in the dark. Cell nuclei were stained with ProLong Gold antifade reagent (P36931; Invitrogen, USA) for 5 minutes, glass slides were covered with pieces of glass, and samples were observed using a laser scanning confocal microscope (Zeiss 710; Germany).

CCc1ccc2c(c1)c(=O)c(C(=O)Nc1ccc(Oc3ncnc4cc(OCCCN5CCOCC5)c(OC)cc34)c(F)c1)c(C)n2C [GDL5000123, 6-ethyl-N-(3-fluoro-4-((6-methoxy-7-(3-morpholinopropoxy)quinazolin-4-yl)oxy)phenyl)-1,2-dimethyl-4-oxo-1,4-dihydroquinoline-3-carboxamide]
IC50 [1]: 51.7 ± 17.6 nM | IC50 [2]: 3.5 ± 3.2 nM | IC50 [3]: 8 nM | inhibitory activity on AXL kinase [3]: strong inhibitory activity

CCc1ccc2c(c1)c(=O)c(C(=O)Nc1ccc(Oc3ncnc4cc(OCCN(C)C)c(OC)cc34)c(F)c1)c(C)n2C [GDL5000128, N-(4-(7-(2-(dimethylamino)ethoxy)-6-methoxyquinazolin-4-yloxy)-3-fluorophenyl)-6-ethyl-1,2-dimethyl-4-oxo-1,4-dihydroquinoline-3-carboxamide]
IC50 [1]: 57.3 ± 10.4 nM | IC50 [2]: 50.2 ± 9.9 nM | IC50 [3]: 6 nM | inhibitory activity on AXL kinase [3]: strong inhibitory activity

CCc1ccc2c(c1)c(=O)c(C(=O)Nc1ccc(Oc3ncnc4cc(OCCCN5CCN(C)CC5)c(OC)cc34)c(F)c1)c(C)n2C [GDL5000138, 6-ethyl-N-(3-fluoro-4-(6-methoxy-7-(3-(4-methylpiperazin-1-yl)propoxy)quinazolin-4-yloxy)phenyl)-1,2-dimethyl-4-oxo-1,4-dihydroquinoline-3-carboxamide]
IC50 [1]: < 2 nM | IC50 [2]: 3.9 ± 2.9 nM | IC50 [3]: 3 nM | inhibitory activity on AXL kinase [3]: strong inhibitory activity

CCc1ccc2c(c1)c(=O)c(C(=O)Nc1ccc(Oc3ncnc4[nH]cc(-c5ccccc5)c34)c(F)c1)c(C)n2C [TL4800075, 6-ethyl-N-(3-fluoro-4-((5-phenyl-7H-pyrrolo[2,3-d]pyrimidin-4-yl)oxy)phenyl)-1,2-dimethyl-4-oxo-1,4-dihydroquinoline-3-carboxamide]
expression of E-cadherin [4]: significantly upregulate | expression of N-cadherin [4]: down-regulate | phosphorylation level of AXL [4]: inhibit the phosphorylation level of AXL in a dose-dependent manner | IC50 [3]: 6 nM

CCc1ccc2c(c1)c(=O)c(C(=O)Nc1ccc(Oc3ncnc4cc(OC)c(OC)cc34)c(F)c1)c(C)n2C [TL4800191, N-(4-(6,7-dimethoxyquinazolin-4-yloxy)-3-fluorophenyl)-6-ethyl-1,2-dimethyl-4-oxo-1,4-dihydroquinoline-3-carboxamide]
expression of E-cadherin [4]: significantly upregulate | expression of N-cadherin [4]: down-regulate | phosphorylation level of AXL [4]: inhibit the phosphorylation level of AXL in a dose-dependent manner | IC50 [1]: 194 ± 104 nM | IC50 [2]: 102 ± 10.9 nM | IC50 [3]: 4 nM

COc1cc2ncnc(Oc3ccc(NC(=O)c4cn5c6c(c(N7CCC(O)CC7)c(F)cc6c4=O)CCC5C)cc3F)c2cc1OC (stereo not shown) [TL4830031, N-(4-((6,7-dimethoxyquinazolin-4-yl)oxy)-3-fluorophenyl)-9-fluoro-8-(4-hydroxypiperidin-1-yl)-5-methyl-1-oxo-1,5,6,7-tetrahydropyrido[3,2,1-ij]quinoline-2-carboxamide]
IC50 [1]: > 500 nM | IC50 [2]: 239 ± 21.9 nM | IC50 [3]: 28 nM
